Test results: US20240279684A1, “CYTOSOLIC DELIVERY OF GENOME EDITING TOOLS” (SAPREME TECHNOLOGIES B.V., priority 2021, published 2024)

How the values were obtained:
JIMT-1 cells = experiment: Transfection efficiency of PD-nanoplexes with/without saponin, flow cytometry (GFP); assay type: cell-based, human; conditions: GFP-DNA PD-nanoplexes, saponin 2 μg/ml
Experimental: After biophysical characterisation had established that nanoplexes of the large plasmid DNA and the poly-lysine peptide were formed, cell experiments were performed: transfections. […] Without wishing to be bound by any theory, the latter effect is most likely due to insufficient complexing of DNA. […] JIMT-1-cells (DSMZ no.: ACC 589) and Neuro-2A- cells (DSMZ no.: ACC 148) were transfected with nanoplexes containing relatively large Cas9-GFP-plasmid, with and without GE1741-Co-application or SO1861-Co-application at a non-toxic concentration, when the cell which is to be transfected is considered. The transfection efficiency of all transfection conditions was measured after 48 h incubation time using flow cytometry by comparison to the negative control in terms of fluorescence intensity (for example, cells contacted with the nanoparticles in the absence of saponin). The efficiency of GE1741-based transfections and SO1861-based transfections was also compared with efficiency of Lipofectamine3000™-based transfection of the nanoparticles. Transfections were performed according to protocols commonly known and applied in the field (Clochard et al., 2020; Sama et al., 2018a; Sama et al., 2017; Sama et al., 2018b). […] Transfection efficiency of GE1741-mediated PD-transfection and SO1861-mediated PD-transfections on Neuro-2A cells and JIMT-1 cells was assessed. […]

[1] = tested on: cells with which the nanoplexes are contacted; experiment: Toxicity of saponin towards cells during transfection; assay type: cell-based
Excerpt: It is part of the invention that the method or the use of the invention is characterized in that the nanoparticle comprises the nanoparticle-forming compound, such as a peptide, such as poly-lysine, and the nucleic acid in a mass ratio in a range of 3:1 to 15:1, preferably in a range of 3:1 to 9:1. Typically, the nanoparticle-forming compound is a poly-lysine peptide such as K16 peptide. Preferred is the method wherein the nucleic acid is a plasmid DNA, at least encoding for a Cas, preferably Cas9 (SEQ ID NO: 1), and optionally also encoding for the gRNA, and wherein the nanoparticles comprise in addition to the plasmid DNA at least one poly-lysine peptide, preferably poly-lysine K16 peptide (poly-lysine peptide consisting of sixteen lysine residues). Alternatively, the poly-lysine peptide is a peptide consisting of 8-25 lysine residues, preferably 10-20, more preferably 12-18. High in vitro transfection efficiency is obtained with the method of the invention when nanoparticles encompassing plasmid DNA, K16 peptide are prepared and applied, and are contacted with cells in the presence of a saponin selected from GE1741 and SO1861, and preferably the saponin is GE1741. Typically, the saponin concentration during transfection of the plasmid DNA into selected target cells in vitro is 1 μg/mL-5 μg/mL, preferably 2-4 μg/mL. […] Cells are typically contacted with a composition comprising the nanoplexes and a separate composition comprising the saponin, preferably GE1741. Thus, typically, the nanoparticles comprise the poly-lysine peptide and the nucleic acid, for example at least a plasmid DNA encoding for a Cas, preferably Cas9 (SEQ ID NO: 1), or a Cas with at least 90% sequence identity with this Cas9, preferably 90-99.5% sequence identity, such as 92%, 93%, 94%, 95% or 95-99%.

CC(=O)OC1C(C)OC(OC2C(C)OC(OC(=O)C34CCC(C)(C)CC3C3=CCC5C6(C)CCC(OC7OC(C(=O)O)C(O)C(OC8OCC(O)C(O)C8O)C7OC7OC(CO)C(O)C(O)C7O)C(C)(C=O)C6CCC5(C)C3(C)CC4O)C(OC3OC(C)C(OC4OCC(O)C(OC5OCC(O)C(O)C5O)C4O)C(O)C3O)C2O)C(O)C1OC(C)=O (centres unmarked) [GE1741]
transfection efficiency (cells expressing GFP) (JIMT-1 cells): around 70% | highest non-toxic saponin Co-administration [1]: 2 µg/mL
